One data set relates to RBL-1 cells. Description: leukotriene B4 production in cultured RBL-1 cells (A23187 stimulated, enzyme immunoassay). The format is cell-based. Here is the method:
RBL-1 cells (Dainippon Pharmaceutical Co.) were cultured in a Dulbecco's Modified Eagle's Medium containing fetal bovine serum in an amount of 10%. The cultured cells were adjusted to 5×10^6 cells/ml. […] After incubated at 37° C. for 5 min, this was immersed into ice and kept for 10 min. Subsequently, 2×10^-5 mol of A23187, Ca-ionophore, was added to the chilled cell suspension to make the final concentration of […], and the cell suspension was incubated again at 37° C. for 15 min. Further, the suspension was held in ice for 10 min. The suspension was subjected to centrifugation at 3000 rpm for 10 min and the cells were removed. Leukotriene B4 (LTB4) level in the supernatant was measured by enzyme immunoassay. […] A significant difference test against the control group was carried out using Bonferroni's test of a multiple comparison.

The test system of data set [1] is DNFB-sensitized mice. Description: survival rate in DNFB-sensitized mice (allergic dermatitis model). The format is in vivo, BALB/c mouse. The note with it: 3, 10, 30 and 100 mg/kg/day oral; up to 6th day after final sensitization (FIGS. 4A and 4B). Here is the method: (§1) Therefore, the presence of such side effects was examined on the active component of the agent of the present invention by using a mouse allergic dermatitis model.
(§2) Hair was removed from the abdomen to the breast of a BALB/c mouse (male, 8 weeks of age) with hair clippers and a shaver. A 0.5% dinitro-fluorobenzene (DNFB) ethanol solution (100 μl head/day) was applied on the hair-removed part one day and two days after the removal of hair to establish sensitization. 2-(3-Cyano-4-isobutyloxyphenyl)-4-methyl-5-thiazolecarboxylic acid, the active component of the present invention, and allopurinol are each suspended in a 0.5% methylcellulose aqueous solution. Each suspension (3, 10, 30 and 100 mg/kg/10 ml/day) was orally administered to an animal at the same time of each DNFB sensitization. […]
(§3) The variations with time of the survival rate and the body weights of the mice administered with the agents were followed up to the 6th day after the final sensitization and recorded. […] The ear thicknesses were measured with a dial thickness gauge (Ozaki Seisakusho, G-1A) before the elicitation, and 24 hr and 48 hr after the elicitation.
(§4) The variations of the body weights and the ear thicknesses were expressed as the mean ± standard deviation for each group. […]

Data set [2] concerns DNFB-sensitized mice. The data set can be described thus: body weight in DNFB-sensitized mice (allergic dermatitis model). It is filed as in vivo, BALB/c mouse. The note with it: survived animals. On the procedure:
as §1
Hair was removed from the abdomen to the breast of a BALB/c mouse (male, 8 weeks of age) with hair clippers and a shaver. A 0.5% dinitro-fluorobenzene (DNFB) ethanol solution (100 μl head/day) was applied on the hair-removed part one day and two days after the removal of hair to establish sensitization. 2-(3-Cyano-4-isobutyloxyphenyl)-4-methyl-5-thiazolecarboxylic acid, the active component of the present invention, and allopurinol are each suspended in a 0.5% methylcellulose aqueous solution. Each suspension (3, 10, 30 and 100 mg/kg/10 ml/day) was orally administered to an animal at the same time of each DNFB sensitization. The number of animals is 8 for each of a 3- and a 10-mg/kg/10 ml/day group, and 10 for each of a 30- and a 100-mg/kg/10 ml/day group in each of the active component and the allopurinol. As the control group, 10 ml/kg of 0.5% methylcellulose aqueous solution, the solvent for the active component and allopurinol, was administered to each of 8 sensitized animals.
The variations with time of the survival rate and the body weights of the mice administered with the agents were followed up to the 6th day after the final sensitization and recorded. For survived sensitized animals, a 0.3% DNFB acetone-olive oil (4:1) mixed solution (10 μl on each of the obverse and the reverse side of an ear) was applied on one ear to elicit an immune reaction and an acetone-olive oil (4:1) mixed solution (10 μl on each of the obverse and the reverse side of an ear) was applied on the other ear on the sixth day after the final sensitization. The ear thicknesses were measured with a dial thickness gauge (Ozaki Seisakusho, G-1A) before the elicitation, and 24 hr and 48 hr after the elicitation.
as §4

Data set [3] deals with DNFB-sensitized mice. The data set can be described thus: ear thickness after elicitation of immune reaction in DNFB-sensitized mice. It is filed as in vivo, BALB/c mouse. On the procedure: as §1, §2, §3, §4
The conditions of data set [4]: clinical application; The Journal of Medicine 1984; The Annals of Pharmacotherapy 1993; cited from earlier work.
In another data set the test system is rats. Description: acute toxicity test, single oral administration in rats. The format is in vivo, rat. As to conditions: single oral administration up to 300 mg/kg. On the procedure:
Further, for the safety evaluation of the agent of the present invention, an acute toxicity test is carried out with rats in terms of 2-(3-cyano-4-isobutyloxyphenyl)-4-methyl-5-thiazolecarboxylic acid as the active component.

Data set [5] concerns ischemia-reperfusion injury model of kidney. Description: renal ischemia-reperfusion injury model in rats, serum creatinine (Cre) level. The format is in vivo, SD rat. The note with it: 50 mg/kg oral 60 min prior to 60-min ischemia; 24-hour reperfusion; mean ± standard deviation; control 3.6±0.4, sham 0.4±0.0; p<0.05 vs control. Here is the method: (§5) An ischemia-reperfusion injury model of kidney for studying effect on the ischemia-reperfusion injury was prepared with a rat as shown below, and the effect of the administration of the active component of the agent of the present invention was studied by using the model animal.
(§6) The abdomen of an SD rat (male, 6 weeks of age) was opened under anesthesia with sodium pentobarbital, the separated left and right renal arteries were clamped with arterial clips to block the blood flow completely, and the kidneys were brought into an ischemic state. After 60-minute ischemia, the artery clamps were released, and blood flow was restarted to bring the kidneys to a reperfused state. After the suture of the opened abdomen, the animal was returned to a cage and allowed to have free access to food and water. […]
(§7) Serum was separated from the obtained blood sample by centrifugation. Blood urea nitrogen (BUN) level and serum creatinine (Cre) level, a parameter for kidney function injury, were determined on the serum using an automated analyzer (Hitachi 7070) by an urease-indophenol method and Jaffe method, respectively.
(§8) 2-(3-Cyano-4-isobutyloxyphenyl)-4-methyl-5-thiazolecarboxylic acid, the active component, was suspended in a 0.5% methylcellulose aqueous solution. […] The results were each expressed as the mean ± standard deviation. […]

For data set [6] the test system is unchanged. Description: renal ischemia-reperfusion injury model in rats, serum BUN level. The format is in vivo, SD rat. As to conditions: 50 mg/kg oral 60 min prior to 60-min ischemia; 24-hour reperfusion; compared with control group (FIG. 2). Here is the method:
as §5, §6, §7, §8

Each structure is given as a SMILES string.

Take `Oc1ncnc2[nH]ncc12` [allopurinol, reference compound]: in the data set on RBL-1 cells (up to 1×10^-8 mol (final concentration of up to 10 μM) (FIG. 3)), the LTB4 production result is “had no effect on the production”. Besides, in the data set on DNFB-sensitized mice [1], the survival rate entry was “survival rate decreased dose-dependently with time from a low dose level”. Further, the body weight change entry in the data set with DNFB-sensitized mice [2] (30 mg/kg oral, p<0.01 vs control (FIG. 5B)) is “decreased the body weights of the animals significantly”; in the data set on DNFB-sensitized mice [2] (100 mg/kg oral, p<0.05 vs control (FIG. 5B)), “decreased the body weights of the animals significantly”. In the data set with DNFB-sensitized mice [3] (30 mg/kg oral, after elicitation, p<0.05 vs control (FIG. 6)), the “increase of the ear thickness and allergy reaction” value is “stimulated the increase of the ear thicknesses, and the allergy reaction significantly”. Besides, the side effects entry in data set [4] was “side effects including an allergy reaction during clinical application and occasionally the side effect is so severe that the patient is brought to death”.
Regarding `Cc1nc(-c2ccc(OCC(C)C)c(C#N)c2)sc1C(=O)O` [2-(3-cyano-4-isobutyloxyphenyl)-4-methyl-5-thiazolecarboxylic acid], the death of rats result in the data set on rats is listed as “None of rats died”. Further, in data set [5], the “serum Cre level” value worked out at 2.3 ± 1.1 mg/dL. The “serum BUN level” value in data set [6] is reported as “exhibited a tendency to suppress the increase of the serum BUN”. For the same molecule, the LTB4 production entry in the data set on RBL-1 cells (1×10^-8 mol (final concentration of 10 μM), p<0.001 vs control (FIG. 3)) is on record as “suppresses the production of LTB4 significantly”. The survival rate entry with DNFB-sensitized mice [1] was “all animals were survived, excluding one animal of the 100 mg/kg/day group”. Further, in the data set on DNFB-sensitized mice [2] (3, 10, 30 and 100 mg/kg/day oral, up to 6th day after final sensitization (FIG. 5A)), the body weight change result is “did not produce a significant change on the body weights of the animals”. The “increase of the ear thickness” value with DNFB-sensitized mice [3] (3, 10, 30 and 100 mg/kg/day oral, 24 hr and 48 hr after elicitation (FIG. 6)) is reported as “none of the effect in terms of the increase of the ear thicknesses was observed”.

Source of the values: patent US5843969A, “Protecting agent for organ or tissue” (Teijin Limited, priority 1995, dated 1998).
